Data published in US6403594B1, “Benzopyran derivatives” (Recordati, S.A. Chemical and Pharmaceutical Company, priority 1999, dated 2002).
Counter-ions that a name gives are not always drawn.

What was measured:
[1] = target: T1, α1b-adrenoceptor (recombinant) (Homo sapiens, UniProt P35368); experiment: Radioligand binding, cloned α1b-adrenoceptor ([3H]prazosin); conditions: read-out: Affinity for recombinant α1b-adrenoceptor, cloned receptors (Ki)
T1 construct: expressed in transfected cells
T1 sequence (P35368 1-520): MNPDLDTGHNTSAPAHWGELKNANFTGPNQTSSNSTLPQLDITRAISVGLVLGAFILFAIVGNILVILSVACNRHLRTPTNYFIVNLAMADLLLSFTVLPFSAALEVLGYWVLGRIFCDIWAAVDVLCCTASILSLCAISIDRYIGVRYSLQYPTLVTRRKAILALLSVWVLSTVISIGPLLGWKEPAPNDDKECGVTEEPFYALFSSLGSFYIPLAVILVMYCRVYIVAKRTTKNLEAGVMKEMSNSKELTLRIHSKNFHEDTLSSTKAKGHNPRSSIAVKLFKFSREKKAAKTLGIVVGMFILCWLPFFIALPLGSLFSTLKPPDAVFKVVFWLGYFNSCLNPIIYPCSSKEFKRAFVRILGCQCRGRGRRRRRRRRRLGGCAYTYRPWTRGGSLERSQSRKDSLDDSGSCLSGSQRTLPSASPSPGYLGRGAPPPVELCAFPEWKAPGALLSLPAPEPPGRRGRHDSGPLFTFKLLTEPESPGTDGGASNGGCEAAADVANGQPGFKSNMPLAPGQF
Description: (§1) Determination of affinity for cloned subtypes of α1-adrenoceptor subtypes was performed in membranes from cells transfected by electroporation with DNA expressing the genes encoding each α1-adrenoceptor subtype.
(§2) Non-specific binding was determined in the presence of 10 μM phentolamine.
(§3) Incubation was stopped by addition of ice-cold Tris buffer and rapid filtration through 0.2% polyethyleneimine-pretreated Schleicher & Schuell GF52 filters.
(§4) Data were expressed as mean Ki.

[2] = target: T2, 5HT1A-serotoninergic receptor (Homo sapiens, UniProt P08908); experiment: Radioligand binding, cloned 5-HT1A-serotoninergic receptor in HeLa membranes ([3H]8-OH-DPAT); parameters: expressed in transfected cells; host or cells: HeLa; conditions: cloned human 5-HT1A receptor in HeLa membranes, mean Ki, read-out: Affinity for 5-HT1A receptor, cloned receptors (Ki)
T2 sequence (P08908 1-422): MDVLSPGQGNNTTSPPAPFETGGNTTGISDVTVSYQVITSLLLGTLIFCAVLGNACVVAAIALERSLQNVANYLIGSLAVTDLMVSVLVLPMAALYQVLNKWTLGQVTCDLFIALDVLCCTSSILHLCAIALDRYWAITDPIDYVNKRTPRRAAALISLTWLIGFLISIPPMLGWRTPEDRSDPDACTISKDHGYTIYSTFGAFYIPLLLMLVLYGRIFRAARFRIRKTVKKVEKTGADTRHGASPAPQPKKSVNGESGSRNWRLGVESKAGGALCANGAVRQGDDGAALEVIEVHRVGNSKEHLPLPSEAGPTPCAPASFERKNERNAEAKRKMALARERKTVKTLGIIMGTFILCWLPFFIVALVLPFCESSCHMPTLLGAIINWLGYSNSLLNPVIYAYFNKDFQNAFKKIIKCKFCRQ
Description: HeLa cells were grown as monolayers in Dulbecco's Modified Eagle medium (DMEM) supplemented with 10% foetal calf serum and gentamicin (100 μg/mL), 5% CO2, at 37° C. The cells were detached from the growth flask at 95% confluence by a cell scraper and were lysed in ice-cold Tris-5-mM and EDTA-5-mM buffer (pH 7.4). The homogenates were centrifuged at 40000×g×20 minutes and the membranes were resuspended in a small volume of ice-cold buffer containing Tris 5 mM and EDTA 5 mM (pH 7.4), and immediately frozen and stored at −70° C. until use.
Non-specific binding was determined in the presence of 10 μM 5-HT. The incubation was stopped by addition of ice-cold Tris buffer and rapid filtration through 0.2% polyethyleneimine-pretreated Schleicher & Schuell filters.
as §4

[3] = target: T3, α1a-adrenoceptor (recombinant) (Homo sapiens, UniProt P35348); experiment: Radioligand binding, cloned α1a-adrenoceptor ([3H]prazosin); conditions: read-out: Affinity for recombinant α1a-adrenoceptor, cloned receptors (Ki)
T3 construct: expressed in transfected cells
T3 sequence (P35348 1-466): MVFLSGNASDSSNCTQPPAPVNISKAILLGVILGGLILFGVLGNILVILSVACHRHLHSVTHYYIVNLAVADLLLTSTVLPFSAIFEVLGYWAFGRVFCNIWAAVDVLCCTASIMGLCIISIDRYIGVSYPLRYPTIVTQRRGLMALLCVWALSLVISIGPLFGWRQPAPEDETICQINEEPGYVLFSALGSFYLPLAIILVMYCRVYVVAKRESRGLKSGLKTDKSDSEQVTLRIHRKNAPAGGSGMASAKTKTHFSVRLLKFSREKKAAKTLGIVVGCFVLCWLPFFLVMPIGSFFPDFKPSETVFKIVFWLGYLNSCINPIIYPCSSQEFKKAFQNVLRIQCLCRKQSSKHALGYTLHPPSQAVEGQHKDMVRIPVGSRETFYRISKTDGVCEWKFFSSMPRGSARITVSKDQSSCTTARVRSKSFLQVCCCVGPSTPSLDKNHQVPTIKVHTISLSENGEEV
Description: as §1, §2, §3, §4

[4] = target: T4, α1d-adrenoceptor (recombinant) (Homo sapiens, UniProt P25100); experiment: Radioligand binding, cloned α1d-adrenoceptor ([3H]prazosin); conditions: read-out: Affinity for recombinant α1d-adrenoceptor, cloned receptors (Ki)
T4 sequence (P25100 1-572): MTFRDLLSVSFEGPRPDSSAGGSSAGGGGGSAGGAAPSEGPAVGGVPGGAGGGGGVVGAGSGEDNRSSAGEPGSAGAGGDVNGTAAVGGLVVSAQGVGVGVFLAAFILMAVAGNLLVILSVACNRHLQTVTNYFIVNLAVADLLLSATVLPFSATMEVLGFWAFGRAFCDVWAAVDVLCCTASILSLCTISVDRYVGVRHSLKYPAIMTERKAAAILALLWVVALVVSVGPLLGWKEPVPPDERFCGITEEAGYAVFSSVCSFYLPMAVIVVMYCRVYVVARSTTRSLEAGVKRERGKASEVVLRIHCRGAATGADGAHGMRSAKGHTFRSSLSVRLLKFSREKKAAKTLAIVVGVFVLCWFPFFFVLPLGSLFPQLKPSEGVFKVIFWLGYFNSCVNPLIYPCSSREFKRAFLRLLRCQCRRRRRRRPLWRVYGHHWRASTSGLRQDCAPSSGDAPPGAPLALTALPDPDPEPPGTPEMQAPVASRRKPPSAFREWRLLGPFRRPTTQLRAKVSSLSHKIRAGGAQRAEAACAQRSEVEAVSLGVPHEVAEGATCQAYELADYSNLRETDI
Description: as §1, §2, §3, §4

| Structure (SMILES) | Ki [1] [nM] | Ki [2] [nM] | Ki [3] [nM] | Ki [4] [nM] |
| --- | --- | --- | --- | --- |
| COc1ccc(OCC(F)(F)F)cc1N1CCN(CCCNC(=O)c2cccc3c(=O)c(C)c(-c4ccccc4)oc23)CC1 [Example 21, 8-<3-{4-[2-Methoxy-5-(2,2,2-trifluoroethoxy)phenyl]-1-piperazinyl}-propylcarbamoyl>-3-methyl-4-oxo-2-phenyl-4H-1-benzopyran] | 31.6 | 257 | 2.54 | 34.7 |
| COc1ccc(OCC(F)(F)F)cc1N1CCN(CCCNC(=O)c2cccc3c(=O)c(C)c(C(N)=O)oc23)CC1 [Example 9, 2-Carbamoyl-8-<3-{4-[2-methoxy-5-(2,2,2-trifluoroethoxy)phenyl]-1-piperazinyl}-propylcarbamoyl>-3-methyl-4-oxo-4H-1-benzopyran] | 94.7 | – | 28.6 | 467 |
| Cc1c(C(N)=O)oc2c(C(=O)NCCCN3CCN(c4ccccc4OCC(F)(F)F)CC3)cccc2c1=O [Example 10, 2-Carbamoyl-8-<3-{4-[2-(2,2,2-trifluoroethoxy)phenyl]-1-piperazinyl}-propylcarbamoyl>-3-methyl-4-oxo-4H-1-benzopyran] | 14.3 | 5.54 | 0.173 | 6.53 |
| Cc1c(C(N)=O)oc2c(C(=O)NCCCN3CCN(c4cc(Cl)ccc4OS(=O)(=O)C(F)(F)F)CC3)cccc2c1=O [Example 13, 2-Carbamoyl-8-{3-[4-(5-chloro-2-trifluoromethanesulphonyloxyphenyl)-1-piperazinyl]propylcarbamoyl}-3-methyl-4-oxo-4H-1-benzopyran] | 1 | 31.4 | 1.61 | 11 |
| COc1ccc(Cl)cc1N1CCN(CCCNC(=O)c2cccc3c(=O)c(C)c(C(C)=O)oc23)CC1 [Example 2, 2-Acetyl-8-{3-[4-(5-chloro-2-methoxyphenyl)-1-piperazinyl]propylcarbamoyl}-3-methyl-4-oxo-4H-1-benzopyran] | 2.34 | 12.3 | 0.32 | 2.68 |
| Cc1c(-c2ccccc2)oc2c(C(=O)NCCCN3CCN(c4cc(Cl)ccc4OS(=O)(=O)C(F)(F)F)CC3)cccc2c1=O [Example 24, 8-{3-[4-(5-Chloro-2-trifluoromethanesulphonyloxyphenyl)-1-piperazinyl]-propylcarbamoyl}-3-methyl-4-oxo-2-phenyl-4H-1-benzopyran hydrochloride] | 7.8 | 140 | 4.21 | 33.7 |
| Cc1c(-c2ccccc2)oc2c(C(=O)NCCCN3CCN(c4cc(F)ccc4OCC(F)(F)F)CC3)cccc2c1=O [Example 20, 8-<3-{4-[5-Fluoro-2-(2,2,2-trifluoroethoxy)phenyl]-1-piperazinyl}-propylcarbamoyl>-3-methyl-4-oxo-2-phenyl-4H-1-benzopyran] | 3.54 | 4.46 | 0.07 | 0.32 |
| CNC(=O)c1oc2c(C(=O)NCCCN3CCN(c4cc(Cl)ccc4OC)CC3)cccc2c(=O)c1C [Example 5, 8-{3-[4-(5-Chloro-2-methoxyphenyl)-1-piperazinyl]propylcarbamoyl}-3-methyl-2-methylcarbamoyl-4-oxo-4H-1-benzopyran] | 2.39 | 23.1 | 0.57 | 2.05 |
| Cc1c(C(N)=O)oc2c(C(=O)NCCCN3CCN(c4ccc(F)cc4OCC(F)(F)F)CC3)cccc2c1=O [Example 7, 2-Carbamoyl-8-<3-{4-[4-fluoro-2-(2,2,2-trifluoroethoxy)phenyl]-1-piperazinyl}-propylcarbamoyl>-3-methyl-4-oxo-4H-1-benzopyran] | – | 12.8 | 1.01 | 6.43 |
| Cc1c(C(N)=O)oc2c(C(=O)NCCCN3CCN(c4cc(Cl)ccc4O)CC3)cccc2c1=O [Example 12, 2-Carbamoyl-8-{3-[4-(5-chloro-2-hydroxyphenyl)-1-piperazinyl]-propylcarbamoyl}-3-methyl-4-oxo-4H-1-benzopyran] | 2.02 | 4.16 | 1.15 | 9.96 |
